Legend:
[1] = tested on: C. mucifaciens ATCC 700355; test: (S)DDA disc diffusion; assay type: cell-based, Corynebacterium mucifaciens; details: for DDA: 200 μg per disc
Experimental: Several Corynebacterium test species were also used in this study, namely C. mucifaciens ATCC 700355, C. striatum NCTC 764, C. xerosis NCTC 11861 and C. jeikeium NCTC 11915. These Gram-positive pathogens are closely related to organisms (aerobic diphtheroids of the genus Corynebacterium) that cause body odour. C. mucifaciens and C. striatum were cultured and maintained on Mueller-Hinton Medium (agar and broth) and were incubated aerobically at 37° C. for 24 hours. C. xerosis and C. jeikeium were cultured and maintained on Mueller-Hinton Medium containing 5% (v/v) lysed horse blood (agar and broth) and were incubated aerobically at 37° C. for 72 hours. A sterile paper disc was impregnated with a sample of the test compound in a suitable solvent and 30 minutes allowed for the solvents to evaporate (where possible). The disc was then placed on an agar plate onto which the test micro-organism had been inoculated. The plate was then incubated under the conditions described above, following which it was examined visually for signs of microbial growth. If the test compound had antimicrobial activity, a circular zone of no growth would be obtained around the disc. The diameter of this zone of “inhibition” was measured using a ProtoCOL™ automated zone sizer (Synbiosis, Cambridge, UK). In general, a greater diameter and/or area of the zone of inhibition indicates a greater antimicrobial activity in the relevant test compound, although other factors such as test compound mobility through the agar gel may also influence the result. Two test a compounds A and B were placed on a single paper disc and the above described DDA procedure repeated. An increase in diameter of the zone of inhibition, compared to the greater of the zone diameters for the two compounds individually, was taken to indicate potential antimicrobial synergy. In practical terms, an increase of greater than 5 mm could be treated as significant. The activities of DOSS and TCC were determined, using (S)DDAs, against the test organisms C. mucifaciens ATCC 700355, C. striatum NCTC 764, C. xerosis NCTC 11861 and C. jeikeium NCTC 11915. 200 μg of the DOSS and/or the TCC were loaded onto each disc. All the experiments were conducted in triplicate.

EMRSA 15 = test: (S)DDA disc diffusion; assay type: cell-based, Staphylococcus aureus; details: 200 μg per disc
Experimental: (§1) A sterile paper disc was impregnated with a sample of the test compound in a suitable solvent and 30 minutes allowed for the solvents to evaporate (where possible). The disc was then placed on an agar plate onto which the test micro-organism had been inoculated. The plate was then incubated under the conditions described above, following which it was examined visually for signs of microbial growth. If the test compound had antimicrobial activity, a circular zone of no growth would be obtained around the disc. The diameter of this zone of “inhibition” was measured using a ProtoCOL™ automated zone sizer (Synbiosis, Cambridge, UK). In general, a greater diameter and/or area of the zone of inhibition indicates a greater antimicrobial activity in the relevant test compound, although other factors such as test compound mobility through the agar gel may also influence the result.
(§2) Two test a compounds A and B were placed on a single paper disc and the above described DDA procedure repeated. An increase in diameter of the zone of inhibition, compared to the greater of the zone diameters for the two compounds individually, was taken to indicate potential antimicrobial synergy. In practical terms, an increase of greater than 5 mm could be treated as significant.
The activities of DOSS and TCC against S. aureus ATCC 29213 and EMRSA 15 were determined using (S)DDAs as described above. 200 μg of the DOSS and/or the TCC were loaded onto each disc. All the experiments were conducted in triplicate.

[2] = tested on: Bact. fragilis ATCC 25285; test: (S)DDA disc diffusion; assay type: cell-based, Bacteroides fragilis; details: 200 μg per disc
Experimental: as §1
Two test a compounds A and B were placed on a single paper disc and the above described DDA procedure repeated. […]
The activities of DOSS and TCC were determined, using (S)DDAs, against a panel of further test micro-organisms, namely B. cereus ATCC 11778, Bact. fragilis ATCC 25285, Clost. difficile […] and E. faecalis ATCC 29212. […]

P. acnes NCTC 737 = test: Disc diffusion / synergy disc diffusion assay ((S)DDA); assay type: cell-based, Propionibacterium acnes; details: for (S)DDA: diluted 1:2 with placebo, 10 μl per disc; for SDDA with DOSS: 200 μg TCC + 50 μg DOSS on one disc
Experimental: (§3) The propionibacteria were cultured and maintained on Wilkins-Chalgren Anaerobe Medium (agar and broth) at pH 6.0; all cultures were incubated anaerobically at 37° C. for 72 hours.
as §1, §2
(§4) Both the DDA and the SDDA test may be carried out using an agar gel supplemented with lipid and/or salt to simulate some of the major components present in human skin and to assess whether these substances might reduce the antimicrobial activity observed for the test compound. Performance under these conditions can provide a more reliable indication of activity on topical application. The supplements used in Examples 1, 11, 12 and 13 below were lipid (either Tween™ 80 at 1% v/v (Example 1) or triolein at 1% v/v (Examples 11, 12 and 13) and sodium chloride (100 mM).

P. granulosum PRP-044 = test: (S)DDA disc diffusion; assay type: cell-based, Propionibacterium granulosum
Experimental: as §3, §1, §2, §4

P. granulosum PRP-005 = test: (S)DDA disc diffusion; assay type: cell-based, Propionibacterium granulosum
Experimental: as §3, §1, §2, §4

P. granulosum PRP-019 = test: (S)DDA disc diffusion; assay type: cell-based, Propionibacterium granulosum
Experimental: as §3, §1, §2, §4

P. granulosum NCTC 11865 = test: (S)DDA disc diffusion; assay type: cell-based, Propionibacterium granulosum
Experimental: as §3, §1, §2, §4

P. granulosum PRP-006 = test: (S)DDA disc diffusion; assay type: cell-based, Propionibacterium granulosum
Experimental: as §3, §1, §2, §4

[3] = supplemented with salt (sodium chloride 100 mM) & lipid (Tween 80 1% v/v), 50 μg DOSS or 200 μg TCC per disc
[4] = unsupplemented, 50 μg DOSS or 200 μg TCC per disc
[5] = unsupplemented, with respect to the TCC
[6] = P. granulosum PRP-044 (MLS), 200 μg TCC or 50 μg DOSS per disc
[7] = P. granulosum PRP-005 (MLSK), 200 μg TCC or 50 μg DOSS per disc
[8] = P. granulosum PRP-019 (MLSK), 200 μg TCC or 50 μg DOSS per disc
[9] = P. granulosum NCTC 11865 (resistance None), 200 μg TCC or 50 μg DOSS per disc
[10] = P. granulosum PRP-006 (MLS), 200 μg TCC or 50 μg DOSS per disc

In the case of `O=C(Nc1ccc(Cl)cc1)Nc1ccc(Cl)c(Cl)c1` [TCC, N-(4-chlorophenyl)-N′-(3,4-dichlorophenyl) urea], the DDA [1] is reported as 9.59 mm, the DDA (EMRSA 15) is reported as 12.42 mm and the DDA [2] is reported as 14.71 mm. For the same compound, the DDA (P. acnes NCTC 737; 200 μg of each test compound per disc (Example 2)) was 15.69 mm, the “(S)DDA” value (P. acnes NCTC 737; 0.1% w/w TCC solution) was 0.00 mm and the “(S)DDA” value (P. acnes NCTC 737; 0.2% w/w TCC solution) was 0.00 mm. The “(S)DDA” value (P. acnes NCTC 737; 0.3% w/w TCC solution) was 30.10 mm, the SDDA area increase (P. acnes NCTC 737; supplemented with salt & lipid) was “∞” and the SDDA increase (P. acnes NCTC 737; supplemented with salt & lipid) was 10.57 mm. The “SDDA with DOSS” value (P. acnes NCTC 737; supplemented with salt & lipid) was 10.57 mm, the DDA (P. acnes NCTC 737; [3]) was 0.00 mm and the DDA (P. acnes NCTC 737; [4]) was 18.76 mm. The “SDDA with DOSS” value (P. acnes NCTC 737; unsupplemented) was 29.95 mm, the SDDA area increase (P. acnes NCTC 737; [5]) was 154.9% and the SDDA increase (P. acnes NCTC 737; [5]) was 11.19 mm. It also gave a DDA (P. granulosum PRP-044; [6]) of 0.00 mm, a DDA (P. granulosum PRP-005; [7]) of 12.13 mm and a DDA (P. granulosum PRP-019; [8]) of 0.00 mm. For the same compound, the DDA (P. granulosum NCTC 11865; [9]) was 17.78 mm and the DDA (P. granulosum PRP-006; [10]) was 10.17 mm.

In the case of dioctyl sodium sulphosuccinate [DOSS], the SDDA area increase [1] is reported as 165.45%, the SDDA increase [1] is reported as 8.13 mm and the “SDDA with TCC” value ([1]; 200 μg DOSS + 200 μg TCC on one disc) is reported as 21.05 mm. For the same compound, the DDA [1] was 12.92 mm, the DDA (EMRSA 15) was 12.42 mm and the DDA [2] was 19.74 mm. For the same compound, the DDA (P. acnes NCTC 737; 200 μg per disc, pH 6.0, single replicates) was 47.63 mm, the “DDA + salt” value (P. acnes NCTC 737; 200 μg per disc, pH 6.0, sodium chloride 100 mM) was 45.14 mm and the “DDA + lipid” value (P. acnes NCTC 737; 200 μg per disc, pH 6.0, triolein 1% v/v) was 47.32 mm. The “(S)DDA” value (P. acnes NCTC 737; 2.5% w/w DOSS solution (Solutol HS 15/ethanol/water)) was 0.00 mm, the “(S)DDA” value (P. acnes NCTC 737; 5% w/w DOSS solution) was 31.88 mm and the “(S)DDA” value (P. acnes NCTC 737; 7.5% w/w DOSS solution) was 40.52 mm. The DDA (P. acnes NCTC 737; [3]) was 0.00 mm, the DDA (P. acnes NCTC 737; [4]) was 11.81 mm and the DDA (P. granulosum PRP-044; [6]) was 0.00 mm. The DDA (P. granulosum PRP-044; P. granulosum PRP-044, 200 μg per disc) was 38.29 mm, the “DDA + salt” value (P. granulosum PRP-044; P. granulosum PRP-044, 200 μg per disc, sodium chloride 100 mM) was 37.67 mm and the “DDA + lipid” value (P. granulosum PRP-044; P. granulosum PRP-044, 200 μg per disc, triolein 1% v/v) was 35.49 mm. For the same compound, the DDA (P. granulosum PRP-005; [7]) was 26.31 mm, the DDA (P. granulosum PRP-005; P. granulosum PRP-005, 200 μg per disc) was 42.96 mm and the “DDA + salt” value (P. granulosum PRP-005; P. granulosum PRP-005, 200 μg per disc, sodium chloride 100 mM) was 46.38 mm. For the same compound, the “DDA + lipid” value (P. granulosum PRP-005; P. granulosum PRP-005, 200 μg per disc, triolein 1% v/v) was 40.47 mm, the DDA (P. granulosum PRP-019; [8]) was 19.94 mm and the DDA (P. granulosum PRP-019; P. granulosum PRP-019, 200 μg per disc) was 41.71 mm. The “DDA + salt” value (P. granulosum PRP-019; P. granulosum PRP-019, 200 μg per disc, sodium chloride 100 mM) was 42.02 mm, the “DDA + lipid” value (P. granulosum PRP-019; P. granulosum PRP-019, 200 μg per disc, triolein 1% v/v) was 42.65 mm and the DDA (P. granulosum NCTC 11865; [9]) was 14.70 mm. The DDA (P. granulosum NCTC 11865; P. granulosum NCTC 11865, 200 μg per disc) was 39.84 mm, the “DDA + salt” value (P. granulosum NCTC 11865; P. granulosum NCTC 11865, 200 μg per disc, sodium chloride 100 mM) was 37.98 mm and the “DDA + lipid” value (P. granulosum NCTC 11865; P. granulosum NCTC 11865, 200 μg per disc, triolein 1% v/v) was 38.60 mm. The DDA (P. granulosum PRP-006; [10]) was 19.01 mm, the DDA (P. granulosum PRP-006; P. granulosum PRP-006, 200 μg per disc) was 40.47 mm and the “DDA + salt” value (P. granulosum PRP-006; P. granulosum PRP-006, 200 μg per disc, sodium chloride 100 mM) was 41.09 mm. The “DDA + lipid” value (P. granulosum PRP-006; P. granulosum PRP-006, 200 μg per disc, triolein 1% v/v) was 40.16 mm.

— patent US20100273876A1, “ANTIBACTERIAL FORMULATION COMPRISING A DIALKYL SULPHOSUCCINATE AND A CARBANILIDE ANTIBACTERIAL AGENT” (priority 2007, published 2010)
